From patent publication US8101760B2, “Glucocorticoid receptor modulator and methods of use” (Eli Lilly and Company, priority 2007, dated 2012)
pKi: −log10 of the molar value. Read-outs that look alike come from different tables or passages of the source.

How the values were obtained:
[1] = biological target: T1, human PR (progesterone receptor) (Homo sapiens, UniProt P06401); test: Nuclear hormone receptor binding assay, PR
T1 construct: expressed in transfected cells; host or cells: HEK293 (lysate, '293-PR lysate')
T1 sequence (P06401 1-933): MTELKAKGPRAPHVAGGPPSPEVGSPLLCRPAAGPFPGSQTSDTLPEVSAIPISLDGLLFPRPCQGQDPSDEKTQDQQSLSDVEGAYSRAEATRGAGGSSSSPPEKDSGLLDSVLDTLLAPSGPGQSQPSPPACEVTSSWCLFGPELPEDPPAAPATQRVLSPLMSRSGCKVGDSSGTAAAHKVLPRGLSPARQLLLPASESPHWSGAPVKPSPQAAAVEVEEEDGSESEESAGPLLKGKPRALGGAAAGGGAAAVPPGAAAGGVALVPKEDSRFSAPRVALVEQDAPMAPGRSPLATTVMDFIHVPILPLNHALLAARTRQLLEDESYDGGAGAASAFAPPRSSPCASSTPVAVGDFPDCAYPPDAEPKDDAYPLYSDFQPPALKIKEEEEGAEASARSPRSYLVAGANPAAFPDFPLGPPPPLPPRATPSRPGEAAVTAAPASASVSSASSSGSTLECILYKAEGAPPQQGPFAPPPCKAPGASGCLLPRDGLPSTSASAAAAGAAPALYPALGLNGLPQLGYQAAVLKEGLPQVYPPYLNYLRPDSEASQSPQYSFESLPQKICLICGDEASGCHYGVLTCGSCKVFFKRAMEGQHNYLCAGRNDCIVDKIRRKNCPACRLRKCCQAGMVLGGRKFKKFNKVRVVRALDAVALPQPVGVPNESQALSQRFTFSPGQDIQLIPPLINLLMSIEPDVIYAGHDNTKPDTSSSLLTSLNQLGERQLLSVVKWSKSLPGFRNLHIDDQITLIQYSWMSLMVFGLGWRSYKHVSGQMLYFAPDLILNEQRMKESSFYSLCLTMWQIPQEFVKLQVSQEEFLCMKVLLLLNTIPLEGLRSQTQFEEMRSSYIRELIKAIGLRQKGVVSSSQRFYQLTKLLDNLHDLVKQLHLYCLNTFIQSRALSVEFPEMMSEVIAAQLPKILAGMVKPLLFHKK
Protocol: Cell lysates from human embryonic kidney HEK293 cells overexpressing human GR (glucocorticoid receptor), AR (androgen receptor), MR (mineralocorticoid receptor), or PR (progesterone receptor) are used for receptor-ligand competition binding assays to determine Ki values.
Briefly, steroid receptor competition binding assays are run in a buffer containing 20 mM Hepes buffer (pH=7.6), 0.2 mM EDTA, 75 mM NaCl, 1.5 mM MgCl2, 20% glycerol, 20 mM sodium molybdate, 0.2 mM DTT (dithiothreitol), 20 μg/mL aprotinin and 20 μg/mL leupeptin. Typically, steroid receptor binding assays include radio-labeled ligands, such as 0.3 nM [^3H]-dexamethasone for GR binding, 0.36 nM [^3H]-methyltrienolone for AR binding, 0.25 nM [^3H]-aldosterone for MR binding, and 0.29 nM [^3H]-methyltrienolone for PR binding, and either 20 μg 293-GR lysate, 22 μg 293-AR lysate, 20 μg 293-MR lysate or 40 μg 293-PR lysate per well. Assays are typically run in 96-well format. Competing test compounds are added at various concentrations ranging from about 0.01 nM to 10 μM. Non-specific binding is determined in the presence of 500 nM dexamethasone for GR binding, 500 nM aldosterone for MR binding, or 500 nM methyltrienolone for AR and PR binding. […] After an incubation of 2 hours, plates are read in a Wallac Microbeta counter. […]

[2] = tested on: carrageenan-induced paw edema; test: Carrageenan-induced paw edema (CPE) model; format: in vivo, rat; conditions: rat; for ED50: oral gavage 2 h before carrageenan, 3 h after injection, mean of 5
Source text: Carrageenans are a group of polysaccharides which can induce an acute inflammatory response in animals. Cardinal signs of inflammation including edema, hyperalgesia and erythema are developed in the injection site immediately following injection. The CPE model (Winter et al., Proc. Soc. Exp. Biol. Med. 111, 544-547, 1962) is a recognized model of inflammation and can be used to evaluate the antinflammatory effects of glucocorticoid receptor ligands.
To evaluate the anti-inflammatory effects of Compound (I), the Compound (I) is formulated in a vehicle comprising 0.5% carboxymethyl cellulose and 0.25% Tween 80 then administered orally via gavage to male Sprague-Dawley rats (180-200 g) (Harlan Industries, Indianapolis, Ind.). For comparison, prednisolone is administered orally in the same vehicle. Two hours later, 1% carrageenan in 50 μL of 0.9% pyrogen free saline is injected into the subplantar regions of the right hind paw. Rats are euthanized by CO2 at 3 hours after the carrageenan injection. Paws are removed then weighed using a microbalance. Paws are then immediately immersed into liquid nitrogen until frozen. Frozen paws are dissected by making several cuts on the paw surface then centrifuged to extract the exudates. Exudate levels of IL-1β, a cytokine generated during the inflammatory response, is then measured by ELISA (R&D Systems, Inc., Catalog No. RLB00) using standard techniques. Total paw protein is also measured using a protein assay kit (Pierce Biotechnology, Inc., Rockford, Ill., U.S.A., Catalog No. 1856210) and the absolute level of IL-1β is normalized to yield a concentration value of ng IL-1β/mg total protein.

[3] = Metabolic profiling of plasma after in vivo administration, rat
[4] = Metabolic profiling of plasma after in vivo administration, monkey
[5] = In vitro assays of genotoxic potential
[6] = In vivo studies of genotoxic potential
[7] = Hygroscopicity and solid-state stability; format: physicochemical

pKi ([1]; HEK293 cell lysate expressing human PR, [3H]-methyltrienolone, mean of 5 determinations): 7.51
greater affinity for GR relative to PR ([1]; binding selectivity GR vs PR): ≥ 30 fold
circulating entity in plasma [3]: major circulating entity
metabolites in plasma [4]: no metabolites detected
circulating entity in plasma ([4]; after in vivo administration): major circulating entity
hygroscopicity [7]: non-hygroscopic
stability ([7]; increased temperature, relative humidity, and light exposure): stable
SMILES: CC/C(=C1\c2ccc(Cl)cc2OCc2ncccc21)c1cccc(NS(C)(=O)=O)c1 [Compound (I), (E)-N-{3-[1-(8-Chloro-11H-10-oxa-1-aza-dibenzo[a,d]cyclohepten-5-ylidene)-propyl]-phenyl}-methanesulfonamide]
inhibition of carrageenan induced paw edema ([2]; oral administration, in words): dose dependently inhibits
production of interleukin-1-beta (IL-1β) ([2]; oral administration, in words): inhibits production
ED50 ([2]; read-out: ED50, inhibition of carrageenan induced paw weight gain): ~1.2 mg/kg
ED50 ([2]; read-out: ED50, reduction of paw exudate levels of IL-1β): ~0.31 mg/kg
genotoxic potential [5]: non-genotoxic
genotoxic potential [6]: non-genotoxic
